Assays:
[1] = target: KRAS G12S (Homo sapiens (Human), UniProt P01116+P62937, G12S); assay: Ras-Raf (BRAF RBD) disruption / FRET / MOA assay, KRAS G12S; format: biochemical; settings: Ras-Raf disruption/FRET/MOA assay; class symbols; read-out: KRAS G12S FRET data IC50
Protocol: (§1) The purpose of this biochemical assay is to measure the ability of test compounds to facilitate ternary complex formation between a nucleotide-loaded Ras isoform and cyclophilin A; the resulting ternary complex disrupts binding to a BRAF^RBD construct, inhibiting Ras signaling through a RAF effector.
(§2) Compound is present in plate wells as a 10-point 3-fold dilution series starting at a final concentration of 30 μM. After incubation at 25° C. for 3 hours, a mixture of Anti-His Eu-W1024 and anti-GST allophycocyanin is then added to assay sample wells at final concentrations of 10 nM and 50 nM, respectively, and the reaction incubated for an additional 1.5 hours. […] Compounds that facilitate disruption of a Ras:RAF complex are identified as those eliciting a decrease in the TR-FRET ratio relative to DMSO control wells.
(§3) This protocol may also be executed substituting other Ras proteins or nucleotides.
(§4) The purpose of this biochemical assay was to measure the ability of test compounds to facilitate ternary complex formation between a nucleotide-loaded K-Ras isoform and Cyclophilin A; the resulting ternary complex disrupts binding to a BRAF^RBD construct, inhibiting K-Ras signaling through a RAF effector. Data is reported as IC50 values.
as §2, with “Compound was” for “Compound is”, “allophycocyanin was” for “allophycocyanin is”, “a K-Ras:RAF” for “a Ras:RAF”, “complex were” for “complex are”

[2] = target: KRAS G12D (Homo sapiens (Human), UniProt P01116+P62937, G12D); assay: Ras-Raf (BRAF RBD) disruption / FRET / MOA assay, KRAS G12D; format: biochemical; settings: Ras-Raf disruption/FRET/MOA assay; class symbols; read-out: KRAS G12D FRET data IC50
Protocol: as §1, §2, §3, §4
as §2, with “Compound was” for “Compound is”, “allophycocyanin was” for “allophycocyanin is”, “a K-Ras:RAF” for “a Ras:RAF”, “complex were” for “complex are”

KRAS G12S, sequence (P01116-2 other isoform, or with tags, fused parts or gaps G12S): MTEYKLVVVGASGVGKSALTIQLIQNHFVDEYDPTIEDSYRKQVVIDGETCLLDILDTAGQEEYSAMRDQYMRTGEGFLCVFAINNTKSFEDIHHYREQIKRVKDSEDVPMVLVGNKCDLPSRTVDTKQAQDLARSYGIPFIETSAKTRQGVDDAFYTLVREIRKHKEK
KRAS G12S, sequence (P62937 whole entry, canonical isoform): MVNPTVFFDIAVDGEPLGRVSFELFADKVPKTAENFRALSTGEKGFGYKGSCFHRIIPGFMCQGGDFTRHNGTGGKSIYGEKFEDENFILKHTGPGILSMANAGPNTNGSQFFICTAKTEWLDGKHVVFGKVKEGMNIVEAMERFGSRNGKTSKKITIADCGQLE
KRAS G12D, sequence (P01116-2 other isoform, or with tags, fused parts or gaps G12D): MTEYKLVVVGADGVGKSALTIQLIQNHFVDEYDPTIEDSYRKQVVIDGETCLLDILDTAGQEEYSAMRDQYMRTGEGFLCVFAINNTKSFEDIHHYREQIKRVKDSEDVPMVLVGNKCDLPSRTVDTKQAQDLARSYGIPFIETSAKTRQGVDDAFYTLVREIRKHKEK
KRAS G12D, sequence (P62937 whole entry): as the sequence (P62937 whole entry, canonical isoform) above

SMILES	IC50 [1] [µM]	IC50 [2] [µM]
C=CC(=O)N1CC[C@H](C(=O)N(C)[C@H](C(=O)N[C@H]2Cc3cc(O)cc(c3)-c3ccc4c(c3)c(c(-c3cnn(C)c3)n4CC)CC(C)(C)COC(=O)[C@@H]3CCCN(N3)C2=O)C(C)C)C1 [Example A099]	1 to 10	> 10
C=CC(=O)N1C[C@H](C)[C@H](C(=O)N(C)[C@H](C(=O)N[C@H]2Cc3cc(O)cc(c3)-c3ccc4c(c3)c(c(-c3cccnc3COC)n4CC)CC(C)(C)COC(=O)[C@@H]3CCCN(N3)C2=O)C(C)C)C1 [Example A056]	0.1 to 1	1 to 10
C=CC(=O)N1CC[C@H](C(=O)N(C)[C@H](C(=O)N[C@H]2Cc3cccc(c3)-c3ccc4c(c3)c(c(-c3ccccc3CCOC)n4CC)CC(C)(C)COC(=O)[C@@H]3CCCN(N3)C2=O)C(C)C)C1 [Example A024]	> 10	> 10
C=CC(=O)N1CCCN(C(=O)N(C)[C@H](C(=O)N[C@H]2Cc3cc(O)cc(c3)-c3ccc4c(c3)c(c(-c3ccccc3CCOC)n4CC)CC(C)(C)COC(=O)[C@@H]3CCCN(N3)C2=O)C(C)C)CC1 [Example A013]	1 to 10	> 10
C=CC(=O)N1CC[C@H](C(=O)N(C)[C@H](C(=O)N[C@H]2Cc3cc(O)cc(c3)-c3ccc4c(c3)c(c(-c3ccccc3OC)n4CC)CC(C)(C)COC(=O)[C@@H]3CCCN(N3)C2=O)C(C)C)C1 [Example A017]	1 to 10	> 10
CCn1c(-c2ccccc2CN(C)C)c2c3cc(ccc31)-c1cc(O)cc(c1)C[C@H](NC(=O)[C@H](C(C)C)N(C)C(=O)c1ccc(NC(=O)/C=C/CN(C)C)cc1)C(=O)N1CCC[C@H](N1)C(=O)OCC(C)(C)C2 [Example A049]	> 10	> 10
C=CC(=O)N1CC[C@H](C(=O)N(C)[C@H](C(=O)N[C@H]2Cc3cc(O)cc(c3)-c3ccc4c(c3)c(c(-c3cccnc3COC)n4CC)CC(C)(C)COC(=O)[C@@H]3CCCN(N3)C2=O)C2CCCC2)C1 [Example A055]	0.1 to 1	1 to 10
C=CC(=O)N1CC[C@H](C(=O)N(C)[C@H](C(=O)N[C@H]2Cc3cc(O)cc(c3)-c3ccc4c(c3)c(c(-c3cccnc3COC)n4C)CC(C)(C)COC(=O)[C@@H]3CCCN(N3)C2=O)C(C)C)C1 [Example A066]	1 to 10	> 10
C=CC(=O)N1CC[C@H](C(=O)N(C)[C@H](C(=O)N[C@H]2Cc3cc(O)cc(c3)-c3ccc4c(c3)c(c(-c3ccc5c(c3)CCN(C)C5)n4CC)CC(C)(C)COC(=O)[C@@H]3CCCN(N3)C2=O)C(C)C)C1 [Example A040]	1 to 10	> 10
C=CC(=O)N1CC[C@@]2(CCN([C@H](C(=O)N[C@H]3Cc4cc(O)cc(c4)-c4ccc5c(c4)c(c(-c4ccccc4CCOC)n5CC)CC(C)(C)COC(=O)[C@@H]4CCCN(N4)C3=O)C(C)C)C2=O)C1 [Example A068]	1 to 10	> 10
C=CC(=O)N1CC[C@H](C(=O)N(C)[C@H](C(=O)N[C@H]2Cc3cc(O)cc(c3)-c3ccc4c(c3)c(c(-c3ccccc3COC)n4CC)CC(C)(C)COC(=O)[C@@H]3CCCN(N3)C2=O)C2CCCC2)C1 [Example A027]	0.1 to 1	> 10
C=CC(=O)N1CCN(C(=O)N(C)[C@H](C(=O)N[C@H]2Cc3cc(O)cc(c3)-c3ccc4c(c3)c(c(-c3ccccc3CCOC)n4CC)CC(C)(C)COC(=O)[C@@H]3CCCN(N3)C2=O)C(C)C)CC1 [Example A018]	1 to 10	> 10
C=CC(=O)N1CC[C@H](C(=O)N(C)[C@H](C(=O)N[C@H]2Cc3cc(O)cc(c3)-c3ccc4c(c3)c(c(-c3ccc(C5CCN(C)CC5)cc3)n4CC)CC(C)(C)COC(=O)[C@@H]3CCCN(N3)C2=O)C(C)C)C1 [Example A039]	1 to 10	1 to 10
CCn1c(-c2cnccc2COC)c2c3cc(ccc31)-c1cc(O)cc(c1)C[C@H](NC(=O)[C@H](C(C)C)N(C)C(=O)[C@H]1CCN(C(=O)C#CCN(C)C)C1)C(=O)N1CCC[C@H](N1)C(=O)OCC(C)(C)C2 [Example A088]	0.1 to 1	1 to 10
C=CC(=O)N1CC[C@H](C(=O)N(C)[C@H](C(=O)N[C@H]2Cc3cc(O)cc(c3)-c3ccc4c(c3)c(c(-c3ccccc3CCOC)n4CC)CC(C)(C)COC(=O)[C@@H]3CCCN(N3)C2=O)C2CCOCC2)C1 [Example A006]	1 to 10	> 10
C=CC(=O)N1CC[C@H](C(=O)N(C)[C@H](C(=O)N[C@H]2Cc3cc(OC(=O)N(C)CC(=O)O)cc(c3)-c3ccc4c(c3)c(c(-c3ccccc3CCOC)n4CC)CC(C)(C)COC(=O)[C@@H]3CCCN(N3)C2=O)C(C)C)C1 [Example A078]	> 10	> 10

The remaining lines, values ahead:

IC50 [1] [µM]	IC50 [2] [µM]	SMILES
> 10	> 10	C=CC(=O)N1CC[C@H](C(=O)N(C)[C@H](C(=O)N[C@H]2Cc3cc(O)cc(c3)-c3ccc4c(c3)c(c(-c3ncccc3COC)n4CC)CC(C)(C)COC(=O)[C@@H]3CCCN(N3)C2=O)C(C)C)C1 [Example A084]
1 to 10	> 10	C=CC(=O)N1CC[C@H](C(=O)N(C)[C@H](C(=O)N[C@H]2Cc3cc(O)cc(c3)-c3ccc4c(c3)c(c(-c3cncc(CN(C)C)c3)n4CC)CC(C)(C)COC(=O)[C@@H]3CCCN(N3)C2=O)C(C)C)C1 [Example A073]
0.1 to 1	1 to 10	CCn1c(-c2cccnc2COC)c2c3cc(ccc31)-c1cc(O)cc(c1)C[C@H](NC(=O)[C@H](C(C)C)N(C)C(=O)C1CN(C(=O)C#CCN(C)C)C1)C(=O)N1CCC[C@H](N1)C(=O)OCC(C)(C)C2 [Example A097]
> 10	> 10	C=CC(=O)N1CC[C@H](C(=O)N(C)[C@H](C(=O)N[C@H]2Cc3cc(cc(O)c3F)-c3ccc4c(c3)c(c(-c3ccccc3CCOC)n4CC)CC(C)(C)COC(=O)[C@@H]3CCCN(N3)C2=O)C(C)C)C1 [Example A009]
1 to 10	> 10	C=CC(=O)N1CC[C@H](C(=O)N(C)[C@H](C(=O)N[C@H]2Cc3cc(OC(=O)CN)cc(c3)-c3ccc4c(c3)c(c(-c3ccccc3CCOC)n4CC)CC(C)(C)COC(=O)[C@@H]3CCCN(N3)C2=O)C(C)C)C1 [Example A008]
1 to 10	> 10	C=CC(=O)N1CC[C@H](C(=O)N(C)[C@H](C(=O)N[C@H]2Cc3cc(O)cc(c3)-c3ccc4c(c3)c(c(-c3ccc(CN5CC[C@@H](O)C5)cc3)n4CC)CC(C)(C)COC(=O)[C@@H]3CCCN(N3)C2=O)C(C)C)C1 [Examples A001]
> 10	> 10	C=CC(=O)N1CC[C@H](C(=O)N(C)[C@H](C(=O)N[C@H]2Cc3nc(cs3)-c3ccc4c(c3)c(c(-c3cccnc3COC)n4CC)CC(C)(C)COC(=O)[C@@H]3CCCN(N3)C2=O)C(C)C)C1 [Example A094]
1 to 10	> 10	C=CC(=O)N1CC[C@H](C(=O)N(C)[C@H](C(=O)N[C@H]2Cc3cc(O)cc(c3)-c3ccc4c(c3)c(c(-c3cccnc3CN(C)C)n4CC)CC(C)(C)COC(=O)[C@@H]3CCCN(N3)C2=O)C(C)C)C1 [Example A092]
1 to 10	> 10	C=CC(=O)N1CC[C@H](C(=O)N(C)[C@H](C(=O)N[C@H]2Cc3cc(O)cc(c3)-c3ccc4c(c3)c(c(-c3ccc(CN5CCCC5)cc3)n4CC)CC(C)(C)COC(=O)[C@@H]3CCCN(N3)C2=O)C(C)C)C1 [Example A010]
0.1 to 1	1 to 10	C=CC(=O)N1C[C@H](C)[C@H](C(=O)N(C)[C@H](C(=O)N[C@H]2Cc3cc(O)cc(c3)-c3ccc4c(c3)c(c(-c3ccccc3CN(C)C)n4CC)CC(C)(C)COC(=O)[C@@H]3CCCN(N3)C2=O)C(C)C)C1 [Example A052]
